In patent publication US20150141248A1, “ANTIFUNGAL COMPOSITIONS” (DSM IP ASSETS B.V., priority 2011, published 2015):

Experiments:
Botrytis cinerea [1] = assay: In vitro antifungal activity, 96-well microtiter plates; assay type: cell-based; conditions: in vitro 25° C.
Description: The following compositions were tested: […] Subsequently, 100 μl of a Botrytis cinerea suspension prepared in PCB medium was used to inoculated each well with 2.5×10^3 spores/ml. […] The expected antifungal activity (E in %) of the active ingredient combination was calculated according to the Colby equation (Colby, 1967): […] wherein X and Y are the observed antifungal activities (in %) of the individual active ingredients X and Y, respectively.

Fusarium proliferatum [2] = assay: as above; assay type: cell-based; conditions: in vitro 25° C., natamycin 2.5 ppm
Description: Subsequently, 100 μl of a Botrytis cinerea suspension prepared in PCB medium was used to inoculated each well with 2.5×10^3 spores/ml.
, the in vitro antifungal activity (%) of the individual active ingredients was assessed by calculating the reduction in mould growth observed in the presence of the active ingredient in comparison to the mould growth observed in the absence of the active ingredient. The expected antifungal activity (E in %) of the active ingredient combination was calculated according to the Colby equation (Colby, 1967): […]
The experiment was conducted as described in Example 13, except for the fact that the following compositions were tested:
Furthermore, Fusarium proliferatum was used for inoculation. The antifungal activity (in %) of the individual and combined active ingredients was determined according to the method described in Example 13.

Botrytis cinerea [3] = assay: Treatment of wounded strawberries inoculated with Botrytis cinerea (mould growth); assay type: in vivo; conditions: 250 ppm natamycin; for Number of moulded wounds/total number of 12 wounds (title: Number of moulded strawberries): strawberries 20° C.; for Observed antifungal activity O: strawberries
Description: Twelve fresh, organic strawberries were used per treatment. Each strawberry was wounded with a 0.5 mm long cut and each wound was inoculated with 10 μl of a Botrytis cinerea suspension containing 1×10^5 of spores/ml. […] The antifungal compositions also comprised 1.00% (w/w) methylhydroxyethylcellulose (MHEC), 0.40% (w/w) xanthan gum, 0.20% (w/w) anti-foaming agent, 0.30% (w/w) citric acid, 0.39% (w/w) lactic acid and 0.11% (w/w) potassium sorbate. The pH of the composition was 4.0. A composition without natamycin or prothioconazole was used as control. The treated strawberries were incubated in a closed box in the dark at 20° C. for 3 days.
After 2 and 3 days of incubation, the mould growth on the strawberries was assessed in a twofold manner: (i) the number of moulded strawberries per total of 12 strawberries was counted; and (ii) the antifungal activity (in %) of the individual and combined active ingredients was determined by calculating the reduction in mould growth observed on the strawberries treated with the antifungal composition in comparison to the mould growth on the strawberries treated with the control composition according to the Colby method described in Example 4 (Colby, 1967).

Fusarium proliferatum [4] = assay: Treatment of wounded bananas inoculated with Fusarium proliferatum (mould growth); assay type: in vivo; conditions: for Number of moulded wounds/total number of 12 wounds: bananas 20° C.; for Observed antifungal activity O: bananas
Description: Four organic, unripe (green) bananas were used per treatment. The peel of each banana was wounded thrice using a cork borer according to the method described by de Lapeyre de Bellaire and Dubois (1987). Subsequently, each wound was inoculated with 15 μl of a Fusarium proliferatum suspension containing 1×10^5 of spores/ml. […] In addition, the antifungal compositions comprised 1.00% (w/w) methylhydroxyethylcellulose (MHEC), 0.40% (w/w) xanthan gum, 0.20% (w/w) anti-foaming agent, 0.30% (w/w) citric acid, 0.39% (w/w) lactic acid and 0.11% (w/w) potassium sorbate. The pH of the composition was 4.0. […] The treated, unripe bananas were incubated in a closed box in the dark at 20° C. and a relative air humidity of 95%, which was obtained in the presence of a saturated Na2HPO4 aqueous solution. During the first 20 days of incubation, a ripe (yellow) banana was included in the closed box to elevate the ethylene gas level and thus induce ripening of the treated, unripe bananas. […]
The expected antifungal activity (E in %) of the combined antifungal composition comprising both active ingredients was calculated according to the Colby equation (Colby, 1967): […]
wherein X and Y are the observed antifungal activities (in %) of the individual active ingredients X and Y, respectively. If the observed antifungal activity (O in %) of the combination exceeds the expected antifungal activity (E in %) of the combination and the synergy factor O/E is thus >1.0, the combined application of the active ingredients leads to a synergistic antifungal effect.

Penicillium italicum = assay: Treatment of wounded mandarins inoculated with Penicillium italicum (mould growth); assay type: in vivo
Description: Ten fresh, organic mandarins were used per treatment. The peel of each mandarin was wounded once using a cork borer according to the method described by de Lapeyre de Bellaire and Dubois (1987). Subsequently, each wound was inoculated with 10 μl of a Penicillium italicum suspension containing 1×10^4 of spores/ml. […] The pH of the composition was 4.0. […]

Compound: C[C@@H]1C/C=C/C=C/C=C/C=C/[C@H](O[C@@H]2O[C@H](C)[C@@H](O)[C@H](N)[C@@H]2O)C[C@@H]2O[C@](O)(C[C@@H](O)C[C@H]3O[C@@H]3/C=C/C(=O)O1)C[C@H](O)[C@H]2C(=O)O [Natamycin, natamycin]
- Observed antifungal activity O (Botrytis cinerea [1]; 5 days, natamycin 0.63 ppm, propiconazole 1.00 ppm or both): 0%
- Observed antifungal activity O (Botrytis cinerea [1]; 5 days, natamycin 1.25 ppm, propiconazole 0.50 ppm, prothioconazole 0.13 ppm, or natamycin 1.25 ppm with either): 0%
- Observed antifungal activity O (Botrytis cinerea [1]; 10 days, natamycin 1.25 ppm, prothioconazole 0.13 ppm or both): 0%
- Observed antifungal activity O (Fusarium proliferatum [2]; 3 days, propiconazole 7.5 ppm or both): 0%
- Observed antifungal activity O (Fusarium proliferatum [2]; 10 days, prothioconazole 0.5 ppm or both): 0%
- Number of moulded wounds/total number of 12 wounds (title: Number of moulded strawberries) (Botrytis cinerea [3]; 500 ppm prothioconazole or both, Day 2): 10/12
- Number of moulded wounds/total number of 12 wounds (title: Number of moulded strawberries) (Botrytis cinerea [3]; 500 ppm prothioconazole or both, Day 2, listed as natamycin): 10
- Number of moulded wounds/total number of 12 wounds (title: Number of moulded strawberries) (Botrytis cinerea [3]; 500 ppm prothioconazole or both, Day 3): 12/12
- Number of moulded wounds/total number of 12 wounds (title: Number of moulded strawberries) (Botrytis cinerea [3]; 500 ppm prothioconazole or both, Day 3, listed as natamycin): 12
- Observed antifungal activity O (Botrytis cinerea [3]; 500 ppm prothioconazole (row prints 50 ppm) or both, 3 days): 24%
- Observed antifungal activity O (Botrytis cinerea [3]; 500 ppm prothioconazole or both, 2 days): 31%
- Number of moulded wounds/total number of 12 wounds (Fusarium proliferatum [4]; 50 ppm natamycin, 250 ppm propiconazole or both, Day 29): 12/12
- Number of moulded wounds/total number of 12 wounds (Fusarium proliferatum [4]; 50 ppm natamycin, 250 ppm propiconazole or both, Day 32): 12/12
- Number of moulded wounds/total number of 12 wounds (Fusarium proliferatum [4]; 50 ppm natamycin, 250 ppm propiconazole or both, Day 34): 12/12
- Number of moulded wounds/total number of 12 wounds (Fusarium proliferatum [4]; 50 ppm natamycin, 250 ppm propiconazole or both, Day 36): 12/12
- Number of moulded wounds/total number of 12 wounds (Fusarium proliferatum [4]; 50 ppm natamycin, 250 ppm propiconazole or both, Day 39): 12/12
- Number of moulded wounds/total number of 12 wounds (Fusarium proliferatum [4]; 50 ppm natamycin, 250 ppm propiconazole or both, Day 42): 12/12
- Number of moulded wounds/total number of 12 wounds (Fusarium proliferatum [4]; 250 ppm natamycin, 100 ppm prothioconazole or both, Day 27): 12/12
- Number of moulded wounds/total number of 12 wounds (Fusarium proliferatum [4]; 250 ppm natamycin, 100 ppm prothioconazole or both, Day 28 and 29): 12/12
- Number of moulded wounds/total number of 12 wounds (Fusarium proliferatum [4]; 250 ppm natamycin, 500 ppm propiconazole or both, Day 34): 12/12
- Number of moulded wounds/total number of 12 wounds (Fusarium proliferatum [4]; 250 ppm natamycin, 500 ppm propiconazole or both, Day 36): 12/12
- Number of moulded wounds/total number of 12 wounds (Fusarium proliferatum [4]; 500 ppm natamycin, 150 ppm propiconazole or both, Day 26): 8/12
- Number of moulded wounds/total number of 12 wounds (Fusarium proliferatum [4]; 500 ppm natamycin, 150 ppm propiconazole or both, Day 26, listed as natamycin): 8
- Number of moulded wounds/total number of 12 wounds (Fusarium proliferatum [4]; 500 ppm natamycin, 150 ppm propiconazole or both, Days 27-29): 8/12
- Number of moulded wounds/total number of 12 wounds (Fusarium proliferatum [4]; 500 ppm natamycin, 150 ppm propiconazole or both, Days 27-29, listed as natamycin): 8
- Number of moulded wounds/total number of 12 wounds (Fusarium proliferatum [4]; 500 ppm natamycin, 150 ppm propiconazole or both, Days 31-32): 8/12
- Number of moulded wounds/total number of 12 wounds (Fusarium proliferatum [4]; 500 ppm natamycin, 150 ppm propiconazole or both, Days 31-32, listed as natamycin): 8
- Number of moulded wounds/total number of 12 wounds (Fusarium proliferatum [4]; 500 ppm natamycin, 250 ppm prothioconazole or both, Day 27, 28 and 29): 8/12
- Number of moulded wounds/total number of 12 wounds (Fusarium proliferatum [4]; 500 ppm natamycin, 250 ppm prothioconazole or both, Day 27, 28 and 29, listed as natamycin): 8
- Number of moulded wounds/total number of 12 wounds (Fusarium proliferatum [4]; 500 ppm natamycin, 1000 ppm propiconazole or both, Day 39): 12/12
- Number of moulded wounds/total number of 12 wounds (Fusarium proliferatum [4]; 500 ppm natamycin, 1000 ppm propiconazole or both, Day 42): 12/12
- Observed antifungal activity O (Fusarium proliferatum [4]; 50 ppm natamycin, 250 ppm propiconazole or both, 29 days): 4%
- Observed antifungal activity O (Fusarium proliferatum [4]; 50 ppm natamycin, 250 ppm propiconazole or both, 32 days): 1%
- Observed antifungal activity O (Fusarium proliferatum [4]; 50 ppm natamycin, 250 ppm propiconazole or both, 34 days): 1%
- Observed antifungal activity O (Fusarium proliferatum [4]; 50 ppm natamycin, 250 ppm propiconazole or both, 36 days): 0%
- Observed antifungal activity O (Fusarium proliferatum [4]; 50 ppm natamycin, 250 ppm propiconazole or both, 39 days): 0%
- Observed antifungal activity O (Fusarium proliferatum [4]; 50 ppm natamycin, 250 ppm propiconazole or both, 42 days): 0%
- Observed antifungal activity O (Fusarium proliferatum [4]; 250 ppm natamycin, 50 ppm propiconazole or both, 23 days): 23%
- Observed antifungal activity O (Fusarium proliferatum [4]; 250 ppm natamycin, 50 ppm propiconazole or both, 27 days): 26%
- Observed antifungal activity O (Fusarium proliferatum [4]; 250 ppm natamycin, 50 ppm propiconazole or both, 29 days): 29%
- Observed antifungal activity O (Fusarium proliferatum [4]; 250 ppm natamycin, 500 ppm propiconazole or both, 34 days): 0%
- Observed antifungal activity O (Fusarium proliferatum [4]; 250 ppm natamycin, 500 ppm propiconazole or both, 36 days): 0%
- Observed antifungal activity O (Fusarium proliferatum [4]; 250 ppm natamycin, 500 ppm propiconazole or both, 39 days): 0%
- Observed antifungal activity O (Fusarium proliferatum [4]; 250 ppm natamycin, 500 ppm propiconazole or both, 42 days): 0%
- Observed antifungal activity O (Fusarium proliferatum [4]; 500 ppm natamycin, 150 ppm propiconazole or both, 27 days): 81%
- Observed antifungal activity O (Fusarium proliferatum [4]; 500 ppm natamycin, 150 ppm propiconazole or both, 28 days): 81%
- Observed antifungal activity O (Fusarium proliferatum [4]; 500 ppm natamycin, 150 ppm propiconazole or both, 29 days): 81%
- Observed antifungal activity O (Fusarium proliferatum [4]; 500 ppm natamycin, 150 ppm propiconazole or both, 31 days): 74%
- Observed antifungal activity O (Fusarium proliferatum [4]; 500 ppm natamycin, 150 ppm propiconazole or both, 32 days): 72%
- Observed antifungal activity O (Penicillium italicum; 250 ppm natamycin, 150 ppm prothioconazole or both, 13 days): 27%
- Observed antifungal activity O (Penicillium italicum; 250 ppm natamycin, 150 ppm prothioconazole or both, 21 days): 6%
- Observed antifungal activity O (Penicillium italicum; 250 ppm natamycin, 150 ppm prothioconazole or both, 26 days): 5%
- Observed antifungal activity O (Penicillium italicum; 250 ppm natamycin, 150 ppm prothioconazole or both, 29 days): 3%
- Observed antifungal activity O (Penicillium italicum; 250 ppm natamycin, 150 ppm prothioconazole or both, 34 days): 0%
- Observed antifungal activity O (Penicillium italicum; 500 ppm natamycin, 600 ppm prothioconazole or both, 25 days): 34%
- Observed antifungal activity O (Penicillium italicum; 500 ppm natamycin, 600 ppm prothioconazole or both, 28 days): 27%
- Observed antifungal activity O (Penicillium italicum; 500 ppm natamycin, 600 ppm prothioconazole or both, 31 days): 24%
- Observed antifungal activity O (Penicillium italicum; 500 ppm natamycin, 600 ppm prothioconazole or both, 34 days): 24%
